In patent US10358458B2, “4′-vinyl substituted nucleoside derivatives as inhibitors of respiratory syncytial virus RNA replication” (Riboscience LLC, priority 2014, dated 2019):

Molecular target: T1, RSV polymerase (Human respiratory syncytial virus A, UniProt P28887)
T1 construct: RSV polymerase was obtained from RSV infected A549 cells; endogenous in cells; host or cells: RSV infected A549 cells (virus-encoded polymerase, detergent preparation)
Test: RSV polymerase assay (inhibition of RNA synthesis by RSV polymerase)
Type: biochemical
Conditions: nucleoside triphosphate analogs; RSV polymerase from RSV infected A549 cells; 33P-CTP incorporation into nascent RSV RNA
Procedure: The RSV polymerase assay measures the ability of the nucleoside triphosphates derived from compounds of formula I to inhibit the RSV polymerase. RSV polymerase was obtained from RSV infected A549 cells. RSV polymerase activity was measured using RSV polymerase preparation (stored in 10 mM Tris-acetate (pH 8), 10 mM K-acetate, 1.5 mM MgCl2, 0.5% deoxycholate and 1% Tween-40) in the a buffer containing 50 mM Tris-HCL, pH8, 100 mM KCl, 5 mM MgCl2, 1 mM DTT and 0.2 mg/ml BSA in the presence of 50 μM ATP, GTP and UTP, 1 μM CTP and 3.5 μCi ^33P-labeled CTP (10 mCi/mL). The amount of nucleotides incorporated into nascent RSV RNA was determined TCA precipitation and scintillation counting.
The polymerase and replication activities of RSV were measured in the presence and absence of different concentrations of compounds to determine the degree of inhibition by the compounds.
The compound concentration at which the enzyme-catalyzed rate is reduced by 50% (IC50) was calculated by fitting the data to equation (1),
[formula] where “Y” corresponds to the relative enzyme activity (in %), “% Min” is the residual relative activity at saturating compound concentration, “% Max” is the relative maximum enzymatic activity, X corresponds to the compound concentration, and “S” is the Hill coefficient (or slope).

T1 sequence (P28887 whole entry): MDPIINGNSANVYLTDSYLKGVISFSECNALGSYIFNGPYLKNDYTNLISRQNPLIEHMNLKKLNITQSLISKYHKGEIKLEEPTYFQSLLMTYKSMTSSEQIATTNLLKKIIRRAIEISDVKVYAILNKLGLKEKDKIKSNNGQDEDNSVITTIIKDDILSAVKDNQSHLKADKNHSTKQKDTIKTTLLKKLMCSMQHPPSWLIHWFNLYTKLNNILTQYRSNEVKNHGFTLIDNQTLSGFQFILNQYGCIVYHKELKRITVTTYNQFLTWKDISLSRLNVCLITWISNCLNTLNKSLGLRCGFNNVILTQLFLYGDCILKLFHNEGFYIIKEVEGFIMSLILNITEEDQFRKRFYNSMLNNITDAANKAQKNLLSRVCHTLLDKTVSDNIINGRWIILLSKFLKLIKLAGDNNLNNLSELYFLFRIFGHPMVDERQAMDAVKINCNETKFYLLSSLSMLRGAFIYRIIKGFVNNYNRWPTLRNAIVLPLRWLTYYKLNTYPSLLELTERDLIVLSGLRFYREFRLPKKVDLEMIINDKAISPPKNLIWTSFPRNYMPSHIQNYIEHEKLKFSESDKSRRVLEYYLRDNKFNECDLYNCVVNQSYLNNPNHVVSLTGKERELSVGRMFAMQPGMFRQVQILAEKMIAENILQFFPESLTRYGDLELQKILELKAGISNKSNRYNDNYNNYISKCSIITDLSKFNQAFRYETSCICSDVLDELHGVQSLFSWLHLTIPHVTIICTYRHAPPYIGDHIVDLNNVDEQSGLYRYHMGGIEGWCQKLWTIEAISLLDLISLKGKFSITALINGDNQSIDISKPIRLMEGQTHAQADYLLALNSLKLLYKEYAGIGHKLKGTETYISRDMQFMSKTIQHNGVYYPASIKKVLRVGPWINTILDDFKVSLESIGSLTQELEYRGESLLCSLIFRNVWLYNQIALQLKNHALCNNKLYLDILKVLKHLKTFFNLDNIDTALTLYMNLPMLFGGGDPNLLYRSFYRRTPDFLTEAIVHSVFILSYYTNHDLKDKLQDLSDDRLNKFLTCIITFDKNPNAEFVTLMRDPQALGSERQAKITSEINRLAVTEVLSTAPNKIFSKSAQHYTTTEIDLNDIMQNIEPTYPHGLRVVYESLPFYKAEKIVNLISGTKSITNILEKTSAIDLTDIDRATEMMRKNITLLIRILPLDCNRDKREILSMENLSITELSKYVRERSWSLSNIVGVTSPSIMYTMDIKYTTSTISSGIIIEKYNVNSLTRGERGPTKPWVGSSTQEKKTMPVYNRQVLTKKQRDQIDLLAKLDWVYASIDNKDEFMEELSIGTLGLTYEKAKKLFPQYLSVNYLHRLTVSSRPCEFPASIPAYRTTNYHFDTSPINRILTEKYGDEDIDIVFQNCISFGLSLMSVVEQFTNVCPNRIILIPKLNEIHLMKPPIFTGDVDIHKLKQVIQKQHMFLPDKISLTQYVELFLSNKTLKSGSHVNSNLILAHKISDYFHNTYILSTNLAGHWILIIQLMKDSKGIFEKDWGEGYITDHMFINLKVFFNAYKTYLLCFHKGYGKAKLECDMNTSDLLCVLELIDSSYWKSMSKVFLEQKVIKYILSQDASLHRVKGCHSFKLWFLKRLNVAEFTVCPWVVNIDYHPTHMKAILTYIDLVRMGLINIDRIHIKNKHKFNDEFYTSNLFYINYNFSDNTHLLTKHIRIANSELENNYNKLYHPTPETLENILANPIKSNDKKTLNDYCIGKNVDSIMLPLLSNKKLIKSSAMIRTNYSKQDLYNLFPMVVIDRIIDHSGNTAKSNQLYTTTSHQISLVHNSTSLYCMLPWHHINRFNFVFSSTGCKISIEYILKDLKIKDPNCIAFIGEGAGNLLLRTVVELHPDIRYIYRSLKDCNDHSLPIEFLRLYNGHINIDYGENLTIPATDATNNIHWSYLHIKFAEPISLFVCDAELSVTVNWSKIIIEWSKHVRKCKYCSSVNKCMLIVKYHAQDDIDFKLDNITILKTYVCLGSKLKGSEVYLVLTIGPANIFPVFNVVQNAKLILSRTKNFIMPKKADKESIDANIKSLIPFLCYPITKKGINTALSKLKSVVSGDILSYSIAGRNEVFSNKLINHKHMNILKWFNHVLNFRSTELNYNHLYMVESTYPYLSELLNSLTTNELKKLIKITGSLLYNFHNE
T1 sequence (P03421 whole entry, further chain): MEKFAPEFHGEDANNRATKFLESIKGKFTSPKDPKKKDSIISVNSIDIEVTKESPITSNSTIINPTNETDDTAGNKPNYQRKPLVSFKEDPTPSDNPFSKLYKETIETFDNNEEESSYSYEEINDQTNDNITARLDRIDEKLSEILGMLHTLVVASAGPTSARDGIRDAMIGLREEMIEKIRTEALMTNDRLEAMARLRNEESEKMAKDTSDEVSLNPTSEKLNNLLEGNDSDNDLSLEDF

`C=C[C@]1(COP(=O)(O)OP(=O)(O)OP(=O)(O)O)O[C@@H](n2ccc(=O)[nH]c2=O)[C@H](O)[C@@H]1O` [II-1] was tested. Which IC50 did it give?
The IC50 was under 1000 nM.

With `C=C[C@]1(COP(=O)(O)OP(=O)(O)OP(=O)(O)O)O[C@@H](n2cnc3c(N)ncnc32)[C@H](O)[C@@H]1O` [II-3] as the compound, how does the IC50 read?
The IC50 was under 1000 nM.

How did the IC50 turn out when `C=C[C@]1(COP(=O)(O)OP(=O)(O)OP(=O)(O)O)O[C@@H](n2ccc(N)nc2=O)[C@H](O)[C@@H]1O` [II-2] was run?
Its IC50 is under 1000 nM.
